Reference: US10414760B2, “Cytochrome P450 inhibitors and uses thereof” (ANGION BIOMEDICA CORP., priority 2016, dated 2019)
pIC50: −log10 of the molar value.

Target: T1, CYP26 (Mus musculus, UniProt O55127)
T1 construct: tissue Xenotech; host or cells: liver microsomes of ATRA-treated mice
T1 sequence (O55127 1-497): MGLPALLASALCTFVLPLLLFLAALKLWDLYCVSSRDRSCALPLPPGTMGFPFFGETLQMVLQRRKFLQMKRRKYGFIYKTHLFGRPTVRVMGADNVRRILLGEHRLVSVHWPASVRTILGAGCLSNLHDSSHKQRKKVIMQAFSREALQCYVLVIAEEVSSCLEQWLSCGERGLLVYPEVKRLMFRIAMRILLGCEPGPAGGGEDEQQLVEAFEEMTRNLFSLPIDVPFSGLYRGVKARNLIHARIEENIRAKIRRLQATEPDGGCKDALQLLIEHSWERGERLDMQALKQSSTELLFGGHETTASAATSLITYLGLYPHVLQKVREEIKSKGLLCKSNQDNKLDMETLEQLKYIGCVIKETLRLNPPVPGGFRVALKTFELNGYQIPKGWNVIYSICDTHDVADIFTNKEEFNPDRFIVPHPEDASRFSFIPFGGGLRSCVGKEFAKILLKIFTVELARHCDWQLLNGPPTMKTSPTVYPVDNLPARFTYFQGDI
Test: CYP26 inhibition: substrate depletion assay for ATRA metabolism in mouse microsomes
Assay type: biochemical
Experimental: Serum Testosterone and PSA and Tumor Testosterone Analysis. Tumor tissue obtained from mice will be homogenized in phosphate buffer (pH 7.4, 0.1 M) and homogenates centrifuged at 2000 g for 20 min. Testosterone concentrations in the serum and in the clear tissue homogenate supernatant will be determined with the ELISA kit from R&D Systems (Catalog # KGR010). Serum PSA concentrations will be measured using a PSA ELISA kit with a serum dilution according to the manufacturers instructions. • c. Breast cancer. To test the efficacy of compounds embodied herein against breast cancer, nude mice carrying human breast cancer lines that are estrogen receptor and Aromatase positive will be used. Cells will be grown in vitro and 2 million will be inoculated in Matrigel (50:50 volume ratio of cells to Matrigel). Cells will be distributed by s.c. injection at the right and left flanks or at the orthotopic sitest in 6 to 8 week old athymic nude mice (BALB/c strain) or severe combined immunodeficient mice under anesthesia. Animals will be treated with compound for 4 weeks, at which point animals will be sacrificed and collect blood samples and tumor tissue for the determination of serum and tumor estrogen levels. Tumors will be excised and a portion will be fixed in formalin for subsequent histochemical and immuno-histochemical analysis. The remainder will be snap frozen in liquid nitrogen and stored at −80° C. • 12. CYP26 inhibition activity. A substrate depletion assay for ATRA metabolism in mouse microsomes is used. […] The assay is run in a 100 μL reaction volume and stopped with an equal volume of methanol. […] CYP17 inhibition assay: In vitro assays for CYP17 17α-hydroxylase and C17,20-lyase activity, assays using rat and dog testis microsomes and ELISA kits from commercial vendors for the detection of formed products are employed. Incubation of rat testis microsomes with the substrate progesterone (P4) results, through the CYP17 17α-hydroxylase and C17,20-lyase activities, in a marked production of androstenedione (AD) in a time and enzyme-concentration dependent manner. […] In another control, microsomes isolated from rat livers, which are known to express very little or no CYP17, are shown to be devoid of this activity. Assays are also used that determine the activity of 17α-hydroxylase activity using P4 as a substrate and detecting HOP4 as a product (using dog testis microsomes) and the activity of C17,20-lyase by using HOP4 as a substrate and AD as a product (rat testis microsomes). • 14. CYP19 inhibition assay: For in vitro assays of CYP19 aromatase activity, commercially available CYP19 enzyme preparations (e.g. BD Gentest Supersomes Catalog #456260) and assay kits (e.g. BD Gentest Catalog #459520) are employed according to the manufacturers instructions.
CYP26 inhibition. […] The assay was run in a 100 μL reaction volume and stopped with an equal volume of methanol. […] Other compounds of formula (I) are similarly potent, for example with an IC50 of 1.6 nM.

| pIC50 | Compound |
| --- | --- |
| > 6.00 | CCC(CC)C(c1ccc2nc(-c3cccc(C(=O)O)c3)sc2c1)n1ccnc1 (stereo not drawn) [3-(6-(2-Ethyl-1-(1H-imidazol-1-yl)butyl)benzo[d]thiazol-2-yl)benzoic acid] |
| > 6.00 | CCC(C(c1ccc2nc(NCc3cccc(C(=O)O)c3)sc2c1)n1ccnc1)N(C)C (stereo not drawn) [Example 7, 3-(((6-(2-(Dimethylamino)-1-(1H-imidazol-1-yl)butyl)benzo[d]thiazol-2-yl)amino)methyl)benzoic acid] |
| > 6.00 | CCC(C(c1ccc2nc(Nc3ccc(C(=O)O)cc3)sc2c1)n1ccnc1)N(C)C (stereo not drawn) [Example 17, 4-((6-(2-(Dimethylamino)-1-(1H-imidazol-1-yl)butyl)benzo[d]thiazol-2-yl)amino)benzoic acid] |
| > 6.00 | CCC(C(c1ccc2nc(NCC(C)(C)C(=O)O)sc2c1)n1ccnc1)N(C)C (stereo not drawn) [Example 19, 3-((6-(2-(Dimethylamino)-1-(1H-imidazol-1-yl)butyl)benzo[d]thiazol-2-yl)amino)-2,2-dimethylpropanoic acid] |
| > 6.00 | CCC(C(c1ccc2nc(NC(=O)CC(C)(C)C(=O)O)sc2c1)n1ccnc1)N(C)C (stereo not drawn) [Example 20, 4-((6-(-2-(dimethylamino)-1-(1H-imidazol-1-yl)butyl)benzo[d]thiazol-2-yl)amino)-2,2-dimethyl-4-oxobutanoic acid] |
| > 6.00 | CCC(C(c1ccc2nc(NC(=O)c3ccc(C(=O)O)cc3)sc2c1)n1ccnc1)N(C)C (stereo not drawn) [Example 22, 4-((6-(2-(dimethylamino)-1-(1H-imidazol-1-yl)butyl)benzo[d]thiazol-2-yl)carbamoyl)benzoic acid] |
| > 6.00 | CCC(C(c1ccc2nc(Oc3ccc(C(=O)O)cc3)sc2c1)n1ccnc1)N(C)C (stereo not drawn) [Example 24, 4-((6-(2-(Dimethylamino)-1-(1H-imidazol-1-yl)butyl)benzo[d]thiazol-2-yl)oxy)benzoic acid] |
| > 6.00 | CCC(C(c1ccc2nc(-c3ccc(C(=O)OC)cc3)sc2c1)n1ccnc1)N(C)C (stereo not drawn) [Example 25, Methyl 4-(6-(2-(dimethylamino)-1-(1H-imidazol-1-yl)butyl)benzo[d]thiazol-2-yl)benzoate] |
| > 6.00 | CCC(C(c1ccc2nc(-c3ccc(C(=O)O)cc3)sc2c1)n1ccnc1)N(C)C (stereo not drawn) [Example 26, 4-(6-(2-(Dimethylamino)-1-(1H-imidazol-1-yl)butyl)benzo[d]thiazol-2-yl)benzoic acid] |
| > 6.00 | CCC(CC)C(c1ccc2nc(-c3ccc(C(=O)OC)cc3)sc2c1)n1ccnc1 (stereo not drawn) [Example 29, Methyl 4-(6-(2-ethyl-1-(1H-imidazol-1-yl)butyl)benzo[d]thiazol-2-yl)benzoate] |
| > 6.00 | CCC(CC)C(c1ccc2nc(-c3ccc(C(=O)O)cc3)sc2c1)n1ccnc1 (stereo not drawn) [Example 30, 4-(6-(2-Ethyl-1-(1H-imidazol-1-yl)butyl)benzo[d]thiazol-2-yl)benzoic acid] |
| > 6.00 | CCC(C(c1ccc2nc(NCc3ccc(C(=O)O)cc3)sc2c1)n1ccnc1)N(C)C (stereo not drawn) [Example 35, 4-(((6-(2-(Dimethylamino)-1-(1H-imidazol-1-yl)butyl)benzo[d]thiazol-2-yl)amino)methyl)benzoic acid] |
| > 6.00 | CCC(C(c1ccc2nc(Nc3cccc(C(=O)O)c3)sc2c1)n1ccnc1)N(C)C (stereo not drawn) [Example 39, 3-((6-(2-(dimethylamino)-1-(1H-imidazol-1-yl)butyl)benzo[d]thiazol-2-yl)amino)benzoic acid] |
| > 6.00 | CCC(C(c1ccc2nc(NC(=O)c3cccc(C(=O)O)c3)sc2c1)n1ccnc1)N(C)C (stereo not drawn) [Example 41, 3-((6-(2-(dimethylamino)-1-(1H-imidazol-1-yl)butyl)benzo[d]thiazol-2-yl)carbamoyl)benzoic acid] |
| > 6.00 | CCC(C(c1ccc2nc(NC(=O)C3(C(=O)O)CCC3)sc2c1)n1ccnc1)N(C)C (stereo not drawn) [Example 43, 1-((6-(2-(Dimethylamino)-1-(1H-imidazol-1-yl)butyl)benzo[d]thiazol-2-yl)carbamoyl)cyclobutanecarboxylic acid] |
| > 6.00 | CCC(C(c1ccc2nc(NC(=O)C3(C(=O)O)CCCCC3)sc2c1)n1ccnc1)N(C)C (stereo not drawn) [Example 45, 1-((6-(2-(Dimethylamino)-1-(1H-imidazol-1-yl)butyl)benzo[d]thiazol-2-yl)carbamoyl)cyclohexanecarboxylic acid] |
| > 6.00 | CCC(C(c1ccc2nc(NC(=O)C3(C(=O)O)CCCC3)sc2c1)n1ccnc1)N(C)C (stereo not drawn) [Example 47, 1-((6-(2-(Dimethylamino)-1-(1H-imidazol-1-yl)butyl)benzo[d]thiazol-2-yl)carbamoyl)cyclopentanecarboxylic acid] |
| > 6.00 | CCC(C(c1ccc2nc(NC(=O)CCC(C)(C)C(=O)O)sc2c1)n1ccnc1)N(C)C (stereo not drawn) [Example 49, 5-((6-(-2-(Dimethylamino)-1-(1H-imidazol-1-yl)butyl)benzo[d]thiazol-2-yl)amino)-2,2-dimethyl-5-oxopentanoic acid] |
| > 6.00 | CCC(C(c1ccc2nc(NC(=O)C3CC4CCC3C4)sc2c1)n1ccnc1)N(C)C (stereo not drawn) [Example 52, N-(6-(-2-(dimethylamino)-1-(1H-imidazol-1-yl)butyl)benzo[d]thiazol-2-yl)bicyclo[2.2.1]heptane-2-carboxamide] |
| > 6.00 | CCC(C(c1ccc2nc(Oc3cccc(C(=O)O)c3)sc2c1)n1ccnc1)N(C)C (stereo not drawn) [Example 54, 3-((6-(2-(Dimethylamino)-1-(1H-imidazol-1-yl)butyl)benzo[d]thiazol-2-yl)oxy)benzoic acid] |
| > 6.00 | CCC(C(c1ccc2nc(-c3cccc(C(=O)O)c3)sc2c1)n1ccnc1)N(C)C (stereo not drawn) [Example 56, 3-(6-(2-(Dimethylamino)-1-(1H-imidazol-1-yl)butyl)benzo[d]thiazol-2-yl)benzoic acid] |
| > 6.00 | CCC(C(c1ccc2nc(-c3ccc(C(=O)O)cc3)sc2c1)n1ccnc1)N(C)CC (stereo not drawn) [Example 58, 4-(6-(2-(Ethyl(methyl)amino)-1-(1H-imidazol-1-yl)butyl)benzo[d]thiazol-2-yl)benzoic acid] |
| > 6.00 | CCC(C(c1ccc2nc(-c3cccc(C(=O)O)c3)sc2c1)n1ccnc1)N(C)CC (stereo not drawn) [Example 60, 3-(6-(2-(Ethyl(methyl)amino)-1-(1H-imidazol-1-yl)butyl)benzo[d]thiazol-2-yl)benzoic acid] |
| > 6.00 | CCC(C(c1ccc2nc(-c3ccc(C(=O)O)c(Cl)c3)sc2c1)n1ccnc1)N(C)C (stereo not drawn) [Example 62, 2-Chloro-4-(6-(2-(dimethylamino)-1-(1H-imidazol-1-yl)butyl)benzo[d]thiazol-2-yl)benzoic acid] |
| > 6.00 | CCC(C(c1ccc2nc(-c3ccc(Cl)c(C(=O)O)c3)sc2c1)n1ccnc1)N(C)C (stereo not drawn) [Example 64, 2-Chloro-5-(6-(2-(dimethylamino)-1-(1H-imidazol-1-yl)butyl)benzo[d]thiazol-2-yl)benzoic acid] |
| > 6.00 | CCC(C(c1ccc2nc(-c3ccc(F)c(C(=O)O)c3)sc2c1)n1ccnc1)N(C)C (stereo not drawn) [Example 66, 5-(6-(2-(Dimethylamino)-1-(1H-imidazol-1-yl)butyl)benzo[d]thiazol-2-yl)-2-fluorobenzoic acid] |
| > 6.00 | CCC(C(c1ccc2nc(-c3cc(F)cc(C(=O)O)c3)sc2c1)n1ccnc1)N(C)C (stereo not drawn) [Example 68, 3-(6-(2-(Dimethylamino)-1-(1H-imidazol-1-yl)butyl)benzo[d]thiazol-2-yl)-5-fluorobenzoicacid] |
